Data taken from patent publication US20240218022A1, “ANTI-VISTA MACROCYCLIC PEPTIDES AND COMPOSITIONS” (BRISTOL-MYERS SQUIBB COMPANY, priority 2022, published 2024).
Starred links: 1 amine or outer side, 2 acyl side, 3 side chain; linkers in the order of their positions; H or OH if unused. Positions of bridges follow the written chain, without caps; N, C: chain ends. Non-standard residues stand in square brackets, D forms with d. Residues, ends and D or L forms follow the SMILES beside them. ξ: configuration not given here. βAsp = O=C(O)[C@H](CC(=O)[*:2])N[*:1]; NMeThr(3ξ) = CN[C@H](C(=O)O)C(C)O; Ahp(2) = CCCCC[C@H](N)C(=O)O; NMeNle = CCCC[C@H](NC)C(=O)O; Tle = CC(C)(C)[C@H](N)C(=O)O; NMeV = CN[C@H](C(=O)O)C(C)C; NMeS = CN[C@@H](CO)C(=O)O; NHexGly = CCCCCCNCC(=O)O; Orn = NCCC[C@H](N)C(=O)O; Aun = NCCCCCCCCCCC(=O)O; AEEA = NCCOCCOCC(=O)O

Biological target: T1, mouse VISTA (mVISTA) (Mus musculus, UniProt Q9D659)
T1 construct: expressed in transfected cells; host or cells: Human embryonic kidney 293T cells
T1 sequence (Q9D659 33-308): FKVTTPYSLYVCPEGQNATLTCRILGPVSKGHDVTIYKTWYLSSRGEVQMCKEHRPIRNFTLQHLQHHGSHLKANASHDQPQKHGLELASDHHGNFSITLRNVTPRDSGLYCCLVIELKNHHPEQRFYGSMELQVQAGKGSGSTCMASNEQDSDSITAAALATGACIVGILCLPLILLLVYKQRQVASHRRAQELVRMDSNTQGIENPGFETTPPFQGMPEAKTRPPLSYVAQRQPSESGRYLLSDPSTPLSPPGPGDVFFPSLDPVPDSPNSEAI
Experiment: Cell-Based Binding High-Content Assay For mVISTA (HC CBA mVISTA)
Details: cell-based binding high-content assay, mVISTA; read-out: HC CBA miPr ISTA IC50
Method in brief: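 This high-content binding assay uses HEK293T cells expressing murine VISTA, measuring displacement of 2 nM biotinylated peptide by fluorescent streptavidin imaging. IC50 values come from four-parameter logistic fitting.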

| SMILES | IC50 [nM] |
| --- | --- |
| CCCCCCN1CC(=O)N[C@@H](Cc2ccc(O)cc2)C(=O)N[C@@H](CC(C)C)C(=O)N[C@@H](CC(N)=O)C(=O)N[C@@H](CCCNC(=N)N)C(=O)N(C)[C@@H](CO)C(=O)N[C@@H](CCCCC)C(=O)N2CCC[C@H]2C(=O)N[C@@H](C(C)(C)C)C(=O)N[C@@H](CO)C(=O)N[C@H](C(=O)N[C@@H](CC(=O)NCCOCCOCC(=O)N[C@@H](CC(=O)O)C(=O)NCCOCCOCC(=O)NCCCCCCCCCCC(=O)O)C(=O)O)CSCC(=O)N[C@@H](Cc2ccccc2)C(=O)N[C@@H](Cc2ccc(O)cc2)C(=O)N[C@@H](CC(=O)O)C1=O [compound 2033] ({CH2CO}-FYD[NHexGly]YLNR[NMeS][Ahp(2)]P[Tle]SC[βAsp][AEEA]D[AEEA][Aun]-OH; thioether N-14) | 18.4 |
| CCCCCCN1CC(=O)N[C@@H](Cc2ccc(O)cc2)C(=O)N[C@@H](CC(C)C)C(=O)N[C@@H](CC(N)=O)C(=O)N[C@@H](CCCNC(=N)N)C(=O)N(C)[C@@H](CO)C(=O)N[C@@H](CCCCC)C(=O)N2CCC[C@H]2C(=O)N[C@@H](C(C)(C)C)C(=O)N[C@@H](CC(=O)O)C(=O)N[C@H](C(=O)N[C@@H](CC(=O)NCCOCCOCC(=O)N[C@@H](CC(=O)O)C(=O)NCCOCCOCC(=O)NCCCCCCCCCCC(=O)O)C(=O)O)CSCC(=O)N[C@@H](Cc2ccccc2)C(=O)N[C@@H](Cc2c[nH]c3ccccc23)C(=O)N[C@@H](CC(=O)O)C1=O [compound 2034] ({CH2CO}-FWD[NHexGly]YLNR[NMeS][Ahp(2)]P[Tle]DC[βAsp][AEEA]D[AEEA][Aun]-OH; thioether N-14) | 43.5 |
| CCCCCCN1CC(=O)N[C@@H](Cc2ccc(O)cc2)C(=O)N[C@@H](CC(C)C)C(=O)N[C@@H](CC(N)=O)C(=O)N[C@@H](CCCNC(=N)N)C(=O)N(C)[C@@H](CO)C(=O)N[C@@H](CCCCC)C(=O)N2CCC[C@H]2C(=O)N[C@@H](C(C)(C)C)C(=O)N[C@@H](CC(=O)O)C(=O)N[C@H](C(=O)N[C@@H](CC(=O)NCCOCCOCC(=O)N[C@@H](CC(=O)O)C(=O)NCCOCCOCC(=O)NCCCCCCCCCCC(=O)O)C(=O)O)CSCC(=O)N[C@@H](Cc2ccccc2)C(=O)N[C@@H](Cc2ccc(O)cc2)C(=O)N[C@@H](CC(=O)O)C1=O [compound 2035] ({CH2CO}-FYD[NHexGly]YLNR[NMeS][Ahp(2)]P[Tle]DC[βAsp][AEEA]D[AEEA][Aun]-OH; thioether N-14) | 37.1 |
| CCCCCCN1CC(=O)N[C@@H](Cc2ccc(O)cc2)C(=O)N[C@@H](CC(C)C)C(=O)N[C@@H](CC(N)=O)C(=O)N[C@@H](CCCNC(=N)N)C(=O)N(C)[C@@H](C(C)O)C(=O)N[C@@H](CCCCC)C(=O)N2CCC[C@H]2C(=O)N[C@@H](C(C)(C)C)C(=O)N[C@@H](CO)C(=O)N[C@H](C(=O)N[C@@H](CC(=O)NCCOCCOCC(=O)N[C@@H](CC(=O)O)C(=O)NCCOCCOCC(=O)NCCCCCCCCCCC(=O)O)C(=O)O)CSCC(=O)N[C@@H](Cc2ccccc2)C(=O)N[C@@H](Cc2ccc(O)cc2)C(=O)N[C@@H](CC(=O)O)C1=O (stereo partly drawn) [compound 2036] ({CH2CO}-FYD[NHexGly]YLNR[NMeThr(3ξ)][Ahp(2)]P[Tle]SC[βAsp][AEEA]D[AEEA][Aun]-OH; thioether N-14) | 49 |
| CCCCCCN1CC(=O)N[C@@H](Cc2ccc(O)cc2)C(=O)N[C@@H](CC(C)C)C(=O)N[C@@H](CC(N)=O)C(=O)N[C@@H](CCCNC(=N)N)C(=O)N(C)[C@@H](C(C)C)C(=O)N[C@@H](CCCCC)C(=O)N2CCC[C@H]2C(=O)N[C@@H](C(C)(C)C)C(=O)N[C@@H](CC(=O)O)C(=O)N[C@H](C(=O)N[C@@H](CC(=O)NCCOCCOCC(=O)N[C@@H](CC(=O)O)C(=O)NCCOCCOCC(=O)NCCCCCCCCCCC(=O)O)C(=O)O)CSCC(=O)N[C@@H](Cc2ccccc2)C(=O)N[C@@H](Cc2ccc(O)cc2)C(=O)N[C@@H](CC(=O)O)C1=O [compound 2037] ({CH2CO}-FYD[NHexGly]YLNR[NMeV][Ahp(2)]P[Tle]DC[βAsp][AEEA]D[AEEA][Aun]-OH; thioether N-14) | 34.4 |
| CCCCCCN1CC(=O)N[C@@H](Cc2ccc(O)cc2)C(=O)N[C@@H](CC(C)C)C(=O)N[C@@H](CC(N)=O)C(=O)N[C@@H](CCCNC(=N)N)C(=O)N(C)[C@@H](C(C)C)C(=O)N[C@@H](CCCCC)C(=O)N2CCC[C@H]2C(=O)N[C@@H](C(C)(C)C)C(=O)N[C@@H](CO)C(=O)N[C@H](C(=O)N[C@@H](CC(=O)NCCOCCOCC(=O)N[C@@H](CC(=O)O)C(=O)NCCOCCOCC(=O)NCCCCCCCCCCC(=O)O)C(=O)O)CSCC(=O)N[C@@H](Cc2ccccc2)C(=O)N[C@@H](Cc2c[nH]c3ccccc23)C(=O)N[C@@H](CC(=O)O)C1=O [compound 2039] ({CH2CO}-FWD[NHexGly]YLNR[NMeV][Ahp(2)]P[Tle]SC[βAsp][AEEA]D[AEEA][Aun]-OH; thioether N-14) | 23.8 |
| CCCCCCN1CC(=O)N[C@@H](Cc2ccc(O)cc2)C(=O)N[C@@H](CC(C)C)C(=O)N[C@@H](CC(N)=O)C(=O)N[C@@H](CCCNC(=N)N)C(=O)N(C)[C@@H](C(C)C)C(=O)N[C@@H](CCCCC)C(=O)N2CCC[C@H]2C(=O)N[C@@H](C(C)(C)C)C(=O)N[C@@H](CC(=O)O)C(=O)N[C@H](C(=O)N[C@@H](CC(=O)NCCOCCOCC(=O)N[C@@H](CC(=O)O)C(=O)NCCOCCOCC(=O)NCCCCCCCCCCC(=O)O)C(=O)O)CSCC(=O)N[C@@H](Cc2ccccc2)C(=O)N[C@@H](Cc2c[nH]c3ccccc23)C(=O)N[C@@H](CC(=O)O)C1=O [compound 2040] ({CH2CO}-FWD[NHexGly]YLNR[NMeV][Ahp(2)]P[Tle]DC[βAsp][AEEA]D[AEEA][Aun]-OH; thioether N-14) | 40.7 |
| CCCCCCN1CC(=O)N[C@@H](Cc2ccc(O)cc2)C(=O)N[C@@H](CC(C)C)C(=O)N[C@@H](CC(N)=O)C(=O)N[C@@H](CCCNC(=N)N)C(=O)N(C)[C@@H](C(C)C)C(=O)N[C@@H](CCCCC)C(=O)N2CCC[C@H]2C(=O)N[C@@H](C(C)(C)C)C(=O)N[C@@H](CO)C(=O)N[C@H](C(=O)N[C@@H](CC(=O)NCCOCCOCC(=O)N[C@@H](CC(=O)O)C(=O)NCCOCCOCC(=O)NCCCCCCCCCCC(=O)O)C(=O)O)CSCC(=O)N[C@@H](Cc2ccccc2)C(=O)N[C@@H](Cc2ccc(O)cc2)C(=O)N[C@@H](CC(=O)O)C1=O [compound 2041] ({CH2CO}-FYD[NHexGly]YLNR[NMeV][Ahp(2)]P[Tle]SC[βAsp][AEEA]D[AEEA][Aun]-OH; thioether N-14) | 29.7 |
| CCCCCCN1CC(=O)N[C@@H](Cc2ccc(O)cc2)C(=O)N[C@@H](CC(C)C)C(=O)N[C@@H](CC(N)=O)C(=O)N[C@@H](CCCNC(=N)N)C(=O)N(C)[C@@H](C(C)O)C(=O)N[C@@H](CCCCC)C(=O)N2CCC[C@H]2C(=O)N[C@@H](C(C)(C)C)C(=O)N[C@@H](CC(=O)O)C(=O)N[C@H](C(=O)N[C@@H](CC(=O)NCCOCCOCC(=O)N[C@@H](CC(=O)O)C(=O)NCCOCCOCC(=O)NCCCCCCCCCCC(=O)O)C(=O)O)CSCC(=O)N[C@@H](Cc2ccccc2)C(=O)N[C@@H](Cc2c[nH]c3ccccc23)C(=O)N[C@@H](CC(=O)O)C1=O (stereo partly drawn) [compound 2042] ({CH2CO}-FWD[NHexGly]YLNR[NMeThr(3ξ)][Ahp(2)]P[Tle]DC[βAsp][AEEA]D[AEEA][Aun]-OH; thioether N-14) | 30.8 |
| CCCCCCN1CC(=O)N[C@@H](Cc2ccc(O)cc2)C(=O)N[C@@H](CC(C)C)C(=O)N[C@@H](CC(N)=O)C(=O)N[C@@H](CCCN)C(=O)N(C)[C@@H](CO)C(=O)N[C@@H](CCCCC)C(=O)N2CCC[C@H]2C(=O)N[C@@H](C(C)(C)C)C(=O)N[C@@H](CC(=O)O)C(=O)N[C@H](C(=O)N[C@@H](CC(=O)NCCOCCOCC(=O)N[C@@H](CC(=O)O)C(=O)NCCOCCOCC(=O)NCCCCCCCCCCC(=O)O)C(=O)O)CSCC(=O)N[C@@H](Cc2ccccc2)C(=O)N[C@@H](Cc2ccc(O)cc2)C(=O)N[C@@H](CC(=O)O)C1=O [compound 2044] ({CH2CO}-FYD[NHexGly]YLN[Orn][NMeS][Ahp(2)]P[Tle]DC[βAsp][AEEA]D[AEEA][Aun]-OH; thioether N-14) | 41.2 |
| CCCCCCN1CC(=O)N[C@@H](Cc2ccc(O)cc2)C(=O)N[C@@H](CC(C)C)C(=O)N[C@@H](CC(N)=O)C(=O)N[C@@H](CCCN)C(=O)N(C)[C@@H](CCCC)C(=O)N[C@@H](CCCCC)C(=O)N2CCC[C@H]2C(=O)N[C@@H](C(C)(C)C)C(=O)N[C@@H](CO)C(=O)N[C@H](C(=O)N[C@@H](CC(=O)NCCOCCOCC(=O)N[C@@H](CC(=O)O)C(=O)NCCOCCOCC(=O)NCCCCCCCCCCC(=O)O)C(=O)O)CSCC(=O)N[C@@H](Cc2ccccc2)C(=O)N[C@@H](Cc2ccc(O)cc2)C(=O)N[C@@H](CC(=O)O)C1=O [compound 2045] ({CH2CO}-FYD[NHexGly]YLN[Orn][NMeNle][Ahp(2)]P[Tle]SC[βAsp][AEEA]D[AEEA][Aun]-OH; thioether N-14) | 20.1 |
| CCCCCCN1CC(=O)N[C@@H](Cc2ccc(O)cc2)C(=O)N[C@@H](CCCCN)C(=O)N[C@@H](CC(N)=O)C(=O)N[C@@H](CCCNC(=N)N)C(=O)N(C)[C@@H](CCCC)C(=O)N[C@@H](CCCCC)C(=O)N2CCC[C@H]2C(=O)N[C@@H](C(C)(C)C)C(=O)N[C@@H](CO)C(=O)N[C@H](C(=O)N[C@@H](CC(=O)NCCOCCOCC(=O)N[C@@H](CC(=O)O)C(=O)NCCOCCOCC(=O)NCCCCCCCCCCC(=O)O)C(=O)O)CSCC(=O)N[C@@H](Cc2ccccc2)C(=O)N[C@@H](Cc2ccc(O)cc2)C(=O)N[C@@H](CC(=O)O)C1=O [compound 2046] ({CH2CO}-FYD[NHexGly]YKNR[NMeNle][Ahp(2)]P[Tle]SC[βAsp][AEEA]D[AEEA][Aun]-OH; thioether N-14) | 34.5 |
